According to PubChem BioAssay (NCI):
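Dose response: 5 concentrations. Exposure: 48 h. Format: 96-well plates. Endpoint: linear interpolation; highest concentration if not reached. TGI marks complete inhibition of growth.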

Assays:
Test in all cases: NCI tumour cell line growth inhibition, 48 h
SNB-75 CNS = system: SNB-75 CNS
SR leukemia = system: SR leukemia
SW-620 colon = system: SW-620 colon
NCI/ADR-RES ovarian = system: NCI/ADR-RES ovarian
TK-10 renal = system: TK-10 renal
EKVX NSCLC = system: EKVX NSCLC
SF-539 CNS = system: SF-539 CNS
OVCAR-3 ovarian = system: OVCAR-3 ovarian
MDA-MB-231 breast = system: MDA-MB-231 breast
SK-MEL-5 melanoma = system: SK-MEL-5 melanoma
UACC-257 melanoma = system: UACC-257 melanoma
SK-MEL-2 melanoma = system: SK-MEL-2 melanoma
LOX IMVI melanoma = system: LOX IMVI melanoma
BT-549 breast = system: BT-549 breast
SN12C renal = system: SN12C renal
IGROV1 ovarian = system: IGROV1 ovarian
MDA-MB-435 = system: MDA-MB-435
HL-60(TB) leukemia = system: HL-60(TB) leukemia
NCI-H522 lung = system: NCI-H522 lung
SF-268 CNS = system: SF-268 CNS
OVCAR-4 ovarian = system: OVCAR-4 ovarian
HCT-15 colon = system: HCT-15 colon
OVCAR-8 ovarian = system: OVCAR-8 ovarian
NCI-H226 lung = system: NCI-H226 lung
SK-MEL-28 melanoma = system: SK-MEL-28 melanoma
MOLT-4 leukemia = system: MOLT-4 leukemia
HOP-62 NSCLC = system: HOP-62 NSCLC
OVCAR-5 ovarian = system: OVCAR-5 ovarian
NCI-H23 lung = system: NCI-H23 lung
RXF 393 renal = system: RXF 393 renal
A498 renal = system: A498 renal
PC-3 prostate = system: PC-3 prostate
M14 melanoma = system: M14 melanoma
NCI-H460 lung = system: NCI-H460 lung
SK-OV-3 ovarian = system: SK-OV-3 ovarian
UACC-62 melanoma = system: UACC-62 melanoma
DLD-1 colon = system: DLD-1 colon
HOP-92 NSCLC = system: HOP-92 NSCLC
ACHN renal = system: ACHN renal
DMS 273 small cell lung = system: DMS 273 small cell lung
K-562 leukemia = system: K-562 leukemia
U251 CNS = system: U251 CNS
LXFL 529 NSCLC = system: LXFL 529 NSCLC
HOP-18 NSCLC = system: HOP-18 NSCLC
KM12 colon = system: KM12 colon
HT29 colon = system: HT29 colon
MCF7 breast = system: MCF7 breast
HCC-2998 colon = system: HCC-2998 colon
M19-MEL melanoma = system: M19-MEL melanoma
MALME-3M melanoma = system: MALME-3M melanoma
T-47D breast = system: T-47D breast
DMS 114 small cell lung = system: DMS 114 small cell lung
A549 NSCLC = system: A549 NSCLC
SNB-78 CNS = system: SNB-78 CNS
UO-31 renal = system: UO-31 renal
HS 578T breast = system: HS 578T breast
CAKI-1 renal = system: CAKI-1 renal
COLO 205 colon = system: COLO 205 colon
CCRF-CEM leukemia = system: CCRF-CEM leukemia
786-0 renal = system: 786-0 renal
SNB-19 CNS = system: SNB-19 CNS
DU-145 prostate = system: DU-145 prostate
HCT-116 colon = system: HCT-116 colon
SF-295 CNS = system: SF-295 CNS
RPMI-8226 leukemia = system: RPMI-8226 leukemia
KM20L2 colon = system: KM20L2 colon
XF 498 CNS = system: XF 498 CNS
MDA-N = system: MDA-N

Measured: TGI

O=P1(O)c2ccccc2Nc2cc(C(F)(F)F)ccc21
> 100 µM: SNB-75 CNS | SR leukemia | SW-620 colon | NCI/ADR-RES ovarian | TK-10 renal | EKVX NSCLC | SF-539 CNS | OVCAR-3 ovarian | MDA-MB-231 breast | SK-MEL-5 melanoma | UACC-257 melanoma | SK-MEL-2 melanoma | LOX IMVI melanoma | BT-549 breast | SN12C renal | IGROV1 ovarian | MDA-MB-435 | HL-60(TB) leukemia | NCI-H522 lung | SF-268 CNS | OVCAR-4 ovarian | HCT-15 colon | OVCAR-8 ovarian | NCI-H226 lung | SK-MEL-28 melanoma | MOLT-4 leukemia | HOP-62 NSCLC | OVCAR-5 ovarian | NCI-H23 lung | RXF 393 renal | A498 renal | PC-3 prostate | M14 melanoma | NCI-H460 lung | SK-OV-3 ovarian | UACC-62 melanoma | DLD-1 colon | HOP-92 NSCLC | ACHN renal | DMS 273 small cell lung | K-562 leukemia | U251 CNS | LXFL 529 NSCLC | HOP-18 NSCLC | KM12 colon | HT29 colon | MCF7 breast | HCC-2998 colon | M19-MEL melanoma | MALME-3M melanoma | T-47D breast | DMS 114 small cell lung | A549 NSCLC | SNB-78 CNS | UO-31 renal | HS 578T breast | CAKI-1 renal | COLO 205 colon | CCRF-CEM leukemia | 786-0 renal | SNB-19 CNS | DU-145 prostate | HCT-116 colon | SF-295 CNS | RPMI-8226 leukemia | KM20L2 colon | XF 498 CNS | MDA-N
